Assay results taken from patent US20130102650A1, “ANTIMICROBIAL COMPOUNDS OF 1,4-NAPHTOQUINONE STRUCTURE” (priority 2010, published 2013).
Converted amounts (≈) assume the structure as drawn. Like-named read-outs stand apart in the source and are kept apart here.

What was measured:
[1] = target: T1, ThyX (Paramecium bursaria Chlorella virus 1, UniProt O41156); conditions: varying dUMP concentrations
[2] = target: T1, ThyX; assay: biochemical
[3] = target: T2, PBCV-1 ThyX (Paramecium bursaria Chlorella virus 1, UniProt O41156); assay: NADPH oxidation assay, screen and IC50 by dose-response curves
Protocol: The NADPH oxidation assay for PBCV-1 ThyX activity (Graziani, S., Xia, Y., Gurnon, J. R., Van Etten, J. L., Leduc, D., Skouloubris, S., Myllykallio, H., and Liebl, U. (2004) Functional analysis of FAD-dependent thymidylate synthase ThyX from Paramecium bursaria Chlorella virus-1. J. Biol. Chem. 279, 54340-54347) was adapted for a medium throughput inhibitor screen (MTS) in 96-well plates. A typical assay with a final volume of 200 μl, contained 200 μM NADPH, 2 μM CH2H4folate, 5 μM dUMP, 1 mM MgCl2, 1% glycerol, 62.5 μM FAD and 400 nM PBCV-1 ThyX. 1982 compounds from the National Cancer Institute diversity set 1 and 340 natural compounds, selected for their diversity and drug-likeness (GreenPharma) (all in DMSO) were added to a final concentration of 20 μM for the initial screen. The microplates were prepared by a liquid handling robotic workstation (Xiril X75), and manually transferred to the automated microplate reader Chameleon II (Hidex). The reactions were started by automatically injecting NADPH into individual wells and the decrease in absorbance at 340 nm was followed at 37° C. for 5 min. Samples with added DMSO and no enzyme were used as positive and negative controls, respectively. For NADPH oxidation at 340 nm a molar extinction coefficient of 6220 M^−1 cm^−1 was used. For this assay a Z′-factor value of 0.62 was calculated, is indicating robustness of the measurement and an acceptable dynamic range of the signal (Zhang, J. H., Chung, T. D., and Oldenburg, K. R. (1999) J. Biomol. Screen. 4, 67-73). Primary hits were defined as compounds that inhibited 75% of ThyX activity at the initial screening concentration.
Compounds that inhibited PBCV-1 ThyX at 20 μM concentration in the NADPH oxidation assay were selected as hits. For each hit IC50 values were determined by fitting the data from three independent experiments to the equation for a dose-response sigmoid curve using GraphPad Prism 4 Software (GraphPad Software Inc.).
All tests were performed in triplicates in 96 well microtiter plates. A typical assay (200 μL) contained 200 μM NADPH, 2 μM dUMP, 1 mM MgCl2, 1% glycerol, 10 μM FAD, 200 nM of PBCV-1 ThyX and different concentrations of inhibitors ranging from 0.1 μM to 40 μM. The reactions were started by injection of NADPH and the absorbance at 340 nm was followed for 3 min at 37° C. […] A molar extinction coefficient for NADPH oxidation at 340 nm of 6220 M^−1 cm^−1 was used for quantification of absorption changes. The optical path length was 0.5 cm. The obtained Vi/V0 values were plotted for each inhibitor concentration and fitted to sigmoidal dose-response curves using GraphPad Prism 4 Software.

[4] = target: T2, PBCV-1 ThyX; assay: Deprotonation (tritium release) assay of ThyX activity; type: biochemical, Paramecium bursaria chlorella virus (PBCV-1); conditions: read-out: % inhibition (deprotonation) PBCV-1 ThyX
[5] = tested on: Helicobacter pylori 26695; assay: MIC by broth microdilution / disc diffusion test; type: cell-based
Protocol: Helicobacter pylori strain 26695 and SS1 were grown on either blood agar base two (Oxoid) plates supplemented with 10% defibrinated horse blood (Oxoid) or in liquid culture in brain-heart infusion broth (Oxoid) supplemented with 10% FBS (Gibco BRL). An antibiotics-fungicide mix consisting of vancomycin (final concentration 10 μg/ml), polymyxin B (2.5 units per liter), trimethoprim (5 μg/ml), and fungizone (2.5 μg/ml) was added. Plates were incubated at 37° C. under microaerobic atmosphere in jars using the […] gas generating system (Oxoid). Liquid cultures were shaken at 175 rpm. Minimal inhibitory concentrations (MICS) were determined using a broth microdilution test in 24 well microtiter plates. […] The MIC was determined as the lowest compound concentration resulting in complete growth inhibition after 24 h of incubation. All the tests were done in triplicates and they included no cells and DMSO-only controls. […] For disc diffusion test an overnight culture of H. pylori strain 26695 was diluted to OD600≈0.01 and spread on agar plates by inundation. 10 μg of each compound were deposited onto diffusion discs and plates were incubated under microaerophilic conditions for 72 h. The diameters of each inhibition zone were measured (disk surface and a DMSO inhibition zone were subtracted). All experiments were done in triplicate, including a DMSO-only control on each plate. MIC determination by broth microdilution was not possible for M. smegmatis mc2 155 due to build up of cell aggregates in liquid cultures. The susceptibility of M. smegmatis mc2 155 towards selected compounds was thus tested using disc diffusion test on LB-agar plates as described above. The inhibition diameters were read after 48 h of incubation at 37° C.

[6] = tested on: Mycobacterium smegmatis mc2 155; assay: Disc diffusion test on LB-agar plates; type: cell-based
Protocol: Liquid cultures were shaken at 175 rpm. Minimal inhibitory concentrations (MICS) were determined using a broth microdilution test in 24 well microtiter plates. […] The MIC was determined as the lowest compound concentration resulting in complete growth inhibition after 24 h of incubation. All the tests were done in triplicates and they included no cells and DMSO-only controls. […] For disc diffusion test an overnight culture of H. pylori strain 26695 was diluted to OD600≈0.01 and spread on agar plates by inundation. 10 μg of each compound were deposited onto diffusion discs and plates were incubated under microaerophilic conditions for 72 h. The diameters of each inhibition zone were measured (disk surface and a DMSO inhibition zone were subtracted). All experiments were done in triplicate, including a DMSO-only control on each plate. MIC determination by broth microdilution was not possible for M. smegmatis mc2 155 due to build up of cell aggregates in liquid cultures. The susceptibility of M. smegmatis mc2 155 towards selected compounds was thus tested using disc diffusion test on LB-agar plates as described above. The inhibition diameters were read after 48 h of incubation at 37° C.

[7] = tested on: human lymphoblastoid TK6 cells; assay: GreenScreen HC genotoxicity and cytotoxicity assay
Protocol: Two strains of cultured human lymphoblastoid TK6 cells were used, the test strain (GenM-T01) and the non-fluorescent control strain (GenM-001), the latter was used to allow correction for any autofluorescence from the test. The plates were analyzed at 24 hour and 48 hour time points using a microplate reader, that allows measurements of light absorbance and fluorescence for cells and solutions in the microplate wells. Absorbance is proportional to cell proliferation, which is lowered by toxic analytes, and fluorescence is proportional to the activity of the cell's DNA repair system, which is increased by genotoxic analytes. […] The GreenScreen HC +S9 protocol uses the same cultured TK6 cell strains (GenM-001 and GenMT01). […] (5% CO2, 95% humidity) for 3 hours. After a recovery period of 45 hours the GFP fluorescence signal and cell viability (assessed by propidium iodide uptake) were measured.

[8] = tested on: E. coli MG1655; assay: Growth of wild type, thyA-carrying E. coli
[9] = tested on: E. coli FE010 (ΔthyA::thyX); conditions: 1.5 μg/ml (≈5 μM), thymidine-deprived medium
[10] = Helicobacter pylori, H. pylori 26695, broth microdilution 24 h or derived from disc diffusion standard curve, read-out: MIC

T1 sequence (O41156 whole entry): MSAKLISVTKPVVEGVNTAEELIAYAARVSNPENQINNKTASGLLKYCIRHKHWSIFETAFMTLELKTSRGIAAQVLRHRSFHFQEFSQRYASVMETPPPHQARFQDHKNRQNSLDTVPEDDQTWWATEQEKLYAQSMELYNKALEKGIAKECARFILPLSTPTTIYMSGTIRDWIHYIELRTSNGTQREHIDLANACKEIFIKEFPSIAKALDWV
T2 sequence (O41156 whole entry): as above

## O=C1C(O)=C([C@H]2CC[C@H](c3ccc(Cl)cc3)CC2)C(=O)c2ccccc21 [atovaquone, reference compound]
[1]
  effect on apparent Km of the enzyme for dUMP: increased the apparent Km value
[2]
  Ki: 5000 nM

## O=C1C(O)=C(c2ccc(-c3ccccc3)cc2)C(=O)c2ccccc21 [Compound F6-C1, 2-(biphenyl-4-yl)-3-hydroxy-1,4-naphthoquinone]
[3]
  IC50: 0.2 µM
[4]
  inhibition at 20 µM: 95 ± 3%
[5]; [10]
  MIC: 10 µg/mL (≈ 30.6 µM)

## O=C(CC1=C(O)C(=O)c2ccccc2C1=O)c1ccccc1 [Compound E11-C1, 2-hydroxy-3-(2-oxo-2-phenylethyl)-1,4-naphthoquinone]
[4]
  inhibition at 20 µM: 36 ± 5%

## O=C1C(O)=C(c2ccc3ccccc3c2)C(=O)c2ccccc21 [Compound A7-S]
[3]
  IC50: 1.2 µM
[5]; [10]
  MIC: 6 µg/mL (≈ 20 µM)

## O=C(CC1=C(O)C(=O)c2ccccc2C1=O)c1cccs1 [Compound H3-C1, 2-hydroxy-3-(2-oxo-2-(thiophen-2-yl)ethyl)-1,4-naphthoquinone]
[3]
  IC50: 8 µM
[4]
  inhibition at 20 µM: 38 ± 3%
[5]; [10]
  MIC: 10 µg/mL (≈ 33.5 µM)

## COc1ccc(CC2=C(O)C(=O)c3ccccc3C2=O)cc1 [Compound C8-C1, 2-hydroxy-3-(4-methoxybenzyl)-1,4-naphthoquinone]
[3]
  IC50: 5 µM
[6]
  growth inhibition / antimicrobial activity against Mycobacterium smegmatis mc2155: inhibited the growth
[1]
  effect on apparent Km of the enzyme for dUMP: increased the apparent Km value
[2]
  Ki: 250 nM
[4]
  inhibition at 20 µM: 78 ± 4%
[7]; GreenScreen HC
  genotoxicity: non-genotoxic
[7]; S9 fraction, 10 μg/ml
  cytotoxic activity in metabolic activation tests: further decreased
[7]; without metabolic activation
  cytotoxic activity: low cytotoxic activity
[5]
  growth inhibition / antimicrobial activity against Helicobacter pylori 26695: inhibited the growth
[5]; Helicobacter pylori, 26695, disc diffusion tests and liquid cultures, read-out: minimal inhibitory concentration (MIC)
  MIC: ~2.5 µg/mL (≈ 8.49 µM)
[5]; [10]
  MIC: 2.5 to 5 µg/mL (≈ 8.49 to 17 µM)

## O=C1C(O)=C(c2ccc(Br)cc2)C(=O)c2ccccc21 [Compound C8-S]
[3]
  IC50: 1.2 µM
[5]; Helicobacter pylori, 26695, 24 h
  MIC: 7 µg/mL (≈ 21.3 µM)

## COc1ccc(C2=C(O)C(=O)c3ccccc3C2=O)cc1 [Compound A3-C2]
[3]
  IC50: 8 µM
[5]; [10]
  MIC: 4.7 µg/mL (≈ 16.8 µM)

## O=C(O)c1ccccc1NC1=CC(=O)c2c(O)cccc2C1=O [Compound B3-C1, 2-(5-hydroxy-1,4-dioxo-1,4-dihydro-naphthalen-2-ylamino)benzoic acid]
[4]
  inhibition at 20 µM: 12 ± 6%

## Cc1ccc(C(=O)CC2=C(O)C(=O)c3ccccc3C2=O)cc1 [Compound F3-C1, 2-hydroxy-3-(2-oxo-2-p-tolylethyl)-1,4-naphthoquinone]
[4]
  inhibition at 20 µM: 38 ± 7%

## O=C1C(O)=C(Cc2ccccc2)C(=O)c2ccccc21 [Compound A4-S]
[3]
  IC50: 1.4 µM
[5]; [10]
  MIC: 1.4 µg/mL (≈ 5.3 µM)

## O=C1C=C(Br)C(=O)c2c(O)cccc21 [Compound 2E04, 2-bromo-8-hydroxy-1,4-naphthoquinone]
[1]
  effect on apparent Km of the enzyme for dUMP: increased the apparent Km value
[2]
  Ki: 1500 nM
[8]
  bactericidal activity on isogenic wild type strain: not observed
[9]
  growth inhibition of E. coli FE010 (ΔthyA::thyX): reproducibly inhibited

## Cc1ccc(C2=C(O)C(=O)c3ccccc3C2=O)cc1 [Compound A4-C2]
[3]
  IC50: 9 µM
[5]; [10]
  MIC: 4.7 µg/mL (≈ 17.8 µM)

## COc1ccc(C(=O)CC2=C(O)C(=O)c3ccccc3C2=O)cc1 [Compound G3-C1, 2-hydroxy-3-(2-(4-methoxyphenyl)-2-oxoethyl)-1,4-naphthoquinone]
[3]
  IC50: 13 µM
[4]
  inhibition at 20 µM: 22 ± 7%
[5]; [10]
  MIC: 10 µg/mL (≈ 31 µM)
